US20120088896A1, “DRUG FOR INHIBITING LECTIN-LIKE OXIDIZED LDL RECEPTOR AND DRUG FOR PREVENTING ARTERIOSCLEROSIS” (NATIONAL CEREBRAL AND CARDIOVASCULAR CENTER, priority 2009, published 2012)
pKd: −log10 of the molar value.

How the values were obtained:
[1] = biological target: T1, TetOn hLOX-1 CHO cells (human LOX-1) (Homo sapiens, UniProt P78380); assay: Binding of DiI-labeled oxidized LDL to LOX-1 expressing cells under low temperature conditions; format: cell-based; details: trimeric procyanidins of different structure at 0.1 μg/ml, on ice; Example 5
T1 construct: expressed in transfected cells
Protocol: It is said that caveola or clathrin is also involved in the incorporation of oxidized LDL into the cells, in addition to that mediated by LOX-1.
First, 100 μl of the suspension of LOX-1 expressing cells adjusted with the above culture medium so as to achieve a density of 1×10^5 cells/ml was dispensed into each well of a 96-well plate (manufactured by Costar, Product Number: 3603). In addition, in order to induce the expression of LOX-1, doxycycline (manufactured by Calbiochem) was added so that the final concentration thereof was 1 μg/ml. As a control, a well where no doxycycline was added so that no expression was induced was also prepared. This 96-well plate was incubated at 37° C. for 24 hours in a CO2 incubator, and each well was then washed with the aforementioned FBS(−) medium cooled to 4° C. […]
This 96-well plate was observed using the In Cell Analyzer 1000 system (manufactured by GE healthcare) to measure the DiI fluorescence intensity and the number of nuclei per each well, and the fluorescence intensity per single cell was determined in the same manner as in Example 2.
Further, the oxidized LDL binding rate (%) was calculated by the following formula (3). […]
Subsequently, the effects of these four types of trimeric procyanidins on the inhibition of the bonding between LOX-1 and oxidized LDL were evaluated. […]

ex-hLOX-1 protein = biological target: T2, ex-hLOX-1 protein (Homo sapiens, UniProt P78380); assay: BIACORE measurement of direct bonding of procyanidins and LOX-1; details: monomers to heptamers at 20 μM; peak 3 trimers at 1.25-20 μM; 120 s binding, 120 s dissociation; read-out: Dissociation Constant
T2 construct: IgK secretion signal (printed 'IgK selection signal') (N, cleaved yes); His tag (from vector pSecTag/FRT/V5His); made in house; host or cells: 293F cells (FreeStyle 293 Expression System)
Protocol: The direct bonding of procyanidins and LOX-1 was evaluated using the BIACORE system.
LOX-1 was fixed on a sensor chip, and the BIACORE measurement was carried out using the procyanidins as the liquid phase. The BIACORE measurements and analyses were conducted using the BIACORE 2000 (GE Healthcare). In addition, the sensor chip CM5 was used as a sensor chip, and the ex-hLOX-1 protein was immobilized on the sensor chip by employing the amine coupling method. A HEPES solution (consisted of 10 mM HEPES, 150 mM NaCl and 2 mM CaCl2) was degassed and used as the running buffer.
Among the procyanidins made to flow through the chip, monomeric to heptameric procyanidins were each adjusted to 20 μM using the running buffer and used for the measurement.
In addition, when the procyanidins were reacted in the sensor chip, the flow rate was set to 20 μl/min, and the dissociation constant was measured with 120 seconds of binding and 120 seconds of dissociation.

SMILES	oxidized LDL binding rate (LOX-1 inhibiting activity) [1]	pKd (ex-hLOX-1 protein)
Oc1cc(O)c2c(c1)O[C@H](c1ccc(O)c(O)c1)[C@H](O)[C@H]2c1c(O)cc2c(c1O)[C@H](c1c(O)cc(O)c3c1O[C@H](c1ccc(O)c(O)c1)[C@@H](O)C3)[C@@H](O)[C@@H](c1ccc(O)c(O)c1)O2 (single isomer, unassigned; peak 2) [peak 2, epi (4β → 6) epi (4β → 8) cat]	exhibited stronger LOX-1 inhibiting activities than the trimeric procyanidins represented by peaks 1 and 4	–
Oc1cc(O)c2c(c1)O[C@H](c1ccc(O)c(O)c1)[C@H](O)[C@H]2c1c(O)cc2c(c1O)C(c1c(O)cc(O)c3c1O[C@H](c1ccc(O)c(O)c1)[C@H](O)C3)[C@@H](O)[C@@H](c1ccc(O)c(O)c1)O2 (single isomer, unassigned; peak 3) [peak 3, epi (4β → 6) epi (4β → 8) epi]	exhibited stronger LOX-1 inhibiting activities than the trimeric procyanidins represented by peaks 1 and 4	5.42
